The record followed here is US5393729A, “3-aryl-pyrone derivatives” (Bayer Aktiengesellschaft, priority 1992, dated 1995).

Read-outs that look alike come from different tables or passages of the source.

For assay [1], the system named is larvae of the green rice cicada (Nephotettix cincticeps). Kind of assay: whole plant or invertebrate. In kind it is in vivo. The settings on record: 144 h, read-out: destruction of cicadas. The procedure:
(§1) Solvent: 7 parts by weight of dimethylformamide
(§2) Emulsifier: 1 part by weight of alkylaryl polyglycol ether
(§3) To produce a suitable preparation of active compound, 1 part by weight of active compound is mixed with the stated amount of solvent and the stated amount of emulsifier, and the concentrate is diluted with water to the desired concentration.
Rice seedlings (Oryza satira) are treated by being dipped into the preparation of active compound of the desired concentration and are infested with larvae of the green rice cicada (Nephotettix cincticeps) while the seedlings are still moist.
After the specified period of time, the destruction in % is determined. 100% means that all the cicadas have been killed; 0% means that none of the cicadas have been killed.

Assay [2] deals with common spider mite or greenhouse red spider mite (Tetranychus urticae). Kind of assay: Tetranychus test (OP resistant). In kind it is in vivo. The settings on record: 168 h, read-out: destruction of spider mites. The procedure:
Tetranychus test (OP resistant)
as §1, §2, §3
Bean plants (Phaseolus vulgaris) which are heavily infested with all development stages of the common spider mite or greenhouse red spider mite (Tetranychus urticae) are treated by being dipped into the preparation of active compound of the desired concentration.
After the specified period of time, the destruction in % is determined. 100% means that all the spider mites have been killed; 0% means that none of the spider mites have been killed.

The subject of a further assay is Trichinella spiralis. Kind of assay: Trichinella spiralis in vitro. The settings on record: 120 h, 5 days at 19° C., read-out: destruction (very good action). The procedure: Trichinella spiralis in vitro
Trichina larvae are isolated from the muscles of mice and washed with 0.9% NaCl supplemented with 20 μg/ml sisomycin and 2 μg/ml of clotrimazole. The actual incubation for approximately 20 trichinas per measurement was effected in 2 ml of a solution consisting of 10 g Bacto Casitone, 5 g of yeast (yeast extract), 2.5 g of glucose, 0.4 g of KH2 PO4, 0.4 g of K2 HPO4 per 500 ml, pH 7.2, containing 10 μg/ml of sisomycin and […] of clotrimazole. 10 mg of the substance to be tested are dissolved in 0.5 ml of DMSO, and such an amount is added to the incubation medium that the end concentrations are 100, 10 and 1 μg/ml. After incubation for 5 days at 19° C., the test is evaluated. The following key is used for the evaluation: 0=no action, the number of live larvae and worms is lower than in the case of the control; 2=good action, dead trichinas can be found; 3=very good action, all trichinas are dead.

Another assay has as its system Digitaria. Kind of assay: Pre-emergence test, Digitaria. In kind it is in vivo. The settings on record: 504 h, after three weeks, 0%=no action, 100%=total destruction, read-out: % Activity (damage to the plants). The procedure:
(§4) Solvent: 5 parts by weight of acetone
as §2
(§5) To produce a suitable preparation of active compound, 1 part by weight of active compound is mixed with the stated amount of solvent, the stated amount of emulsifier is added and the concentrate is diluted with water to the desired concentration.
(§6) Seeds of the test plants are sown in normal soil and, after 24 hours, watered with the preparation of the active compound. It is expedient to keep constant the amount of water per unit area. The concentration of the active compound in the preparation is of no importance, only the amount of active compound applied per unit area being decisive. After three weeks, the degree of damage to the plants is rated in % damage in comparison to the development of the untreated control. The figures denote:
(§7) 0%=no action (like untreated control)
(§8) In this test, the following results were obtained at an exemplary application rate of 500 g/ha, the active compounds being tolerated well to very well by soya beans: […]

The test system of the next assay is Echinochloa. Kind of assay: Pre-emergence test, Echinochloa. In kind it is in vivo. The settings on record: 504 h, after three weeks, 0%=no action, 100%=total destruction, read-out: % Activity (damage to the plants). The procedure:
as §4, §2, §5, §6, §7, §8

The subject of the next assay is Panicum. Description: Pre-emergence test, Panicum. In kind it is in vivo. The settings on record: 504 h, after three weeks, 0%=no action, 100%=total destruction, read-out: % Activity (damage to the plants). The procedure: as §4, §2, §5, §6, §7, §8
For a further assay, the system named is Setaria. Kind of assay: Pre-emergence test, Setaria. In kind it is in vivo. The settings on record: 504 h, after three weeks, 0%=no action, 100%=total destruction, read-out: % Activity (damage to the plants). The procedure: as §4, §2, §5, §6, §7, §8
Assay [3] relates to mustard beetle larvae (Phaedon cochleariae). Kind of assay: Phaedon larvae test. In kind it is in vivo. The settings on record: 168 h, after 7 days, active compound concentration 0.1%, cabbage leaves dipped, read-out: destruction of beetle larvae. The procedure: as §1, §2, §3
After the specified periods of time, the destruction in % is determined. 100% means that all the beetle larvae have been killed; 0% means that none of the beetle larvae have been killed.

In assay [4] the test system is caterpillars of the diamond-back moth (Plutella maculipennis). Kind of assay: whole plant or invertebrate. In kind it is in vivo. The settings on record: in Brassica oleracea, 168 h, read-out: destruction of caterpillars. The procedure: as §1, §2, §3
Cabbage leaves (Brassica oleracea) are treated by being dipped into the preparation of active compound of the desired concentration and are infested with caterpillars of the diamond-back moth (Plutella maculipennis) while the leaves are still moist.
After the specified periods of time, the destruction in % is determined. 100% means that all the caterpillars have been killed; 0% means that none of the caterpillars have been killed.

[5] abbreviates: after 7 days, active compound concentration 0.01%, OP resistant, bean plants dipped.

As to `CCOC(=O)Oc1cc(C(C)(C)C)oc(=O)c1-c1c(C)cc(C)cc1C` [Example 3, 4-ethoxycarbonyloxy-6-tert.-butyl-3-(2,4,6-trimethylphenyl)pyrone], the mortality at 0.1 % in assay [1] was 100%. Also, the mortality at 0.01 % in assay [2] came out at 100%.
As for `Cc1cc(C)c(-c2c(O)c(C#N)c(-c3ccccc3Cl)oc2=O)c(C)c1` [Example 13], the killing at 100 ppm in the assay with Trichinella spiralis was determined as 100%.
The same measure, in the same setting: the value for `CCOC(=O)c1c(-c2ccccc2F)oc(=O)c(-c2c(C)cc(C)cc2C)c1O` [Example 14] was 100%.
Same read-out and setting: the value for `CCOC(=O)c1c(-c2ccc([N+](=O)[O-])cc2)oc(=O)c(-c2c(C)cc(C)cc2C)c1O` [Example 15] was 100%; that for `Cc1cc(C)c(-c2c(O)c(C(=O)N3CCOCC3)c(C)oc2=O)c(C)c1` [Example 18] was 100%.
On the same count and under the same terms, the value for `Cc1cc(C)c(-c2c(O)c(C(=O)c3ccccc3)c(C)oc2=O)c(C)c1` [Example 26] was 100%.
Take `Cc1cc(C)c(-c2c(O)cc(C(C)(C)C)oc2=O)c(C)c1` [Example 31]: the mortality at 0.1 % in [1] was 100%. Also, the mortality at 0.01 % in assay [2] (setting [5]) turned out to be 100%. The activity at 500 g/ha lay in the range of 90 to 100% with Digitaria, 70 to 100% in the assay with Echinochloa, 95 to 100% in the assay with Panicum and 70 to 100% with Setaria.
With `Cc1cc(C)c(-c2c(O)c(C(C)C)c(C)oc2=O)c(C)c1` [Example 33], the activity at 500 g/ha in the assay on Digitaria is 90 to 100%; in the assay with Echinochloa, 70 to 100%; with Panicum, 95 to 100%; in the assay on Setaria it was 70 to 100%.
As to `Cc1cc(C)c(-c2c(O)cc(C)oc2=O)c(C)c1` [Example 34], the mortality at 0.1 % in [1] is 100%. The activity at 500 g/ha was in the range of 90 to 100% in the assay with Digitaria, 70 to 100% in the assay on Echinochloa, 95 to 100% in the assay on Panicum and 70 to 100% in the assay on Setaria.
Regarding `CCc1c(C)oc(=O)c(-c2c(C)cc(C)cc2C)c1O` [Example 35], the mortality at 0.1 % in assay [1] came to 100%. Further, the activity at 500 g/ha was 90 to 100% in the assay on Digitaria, 95 to 100% in the assay on Panicum and 70 to 100% with Setaria.
For the compound `CCCc1c(CC)oc(=O)c(-c2c(C)cc(C)cc2C)c1O` [Example 37], the mortality at 0.1 % in assay [1] was 100%. In addition, the activity at 500 g/ha in the assay with Echinochloa lay within 70 to 100%; in the assay with Panicum it was 95 to 100%; with Setaria, 70 to 100%. In addition, the killing at 100 ppm with Trichinella spiralis was found to be 100%.
With `Cc1cc(C)c(-c2c(O)cc(-c3ccccc3Cl)oc2=O)c(C)c1` [Example 47], the mortality at 0.1 % in assay [3] came to 100%.
For `Cc1cc(C)c(-c2c(O)cc(-c3ccccc3F)oc2=O)c(C)c1` [Example 51], in [1], the mortality at 0.1 % is 100%.
For the compound `Cc1cc(C)c(-c2c(O)cc(-c3ccc(F)cc3)oc2=O)c(C)c1` [Example 52], the mortality at 0.1 % in assay [4] and in [1] was 100% throughout. Also, the activity at 500 g/ha in the assay with Digitaria was in the range of 90 to 100%; with Echinochloa it was 70 to 100%; in the assay on Panicum, 95 to 100%; in the assay on Setaria, 70 to 100%.
Consider `Cc1cc(C)c(-c2c(O)cc(-c3ccc(Cl)cc3)oc2=O)c(C)c1` [Example 53], for which the mortality at 0.1 % in assay [4] amounted to 100%. Moreover, the activity at 500 g/ha with Digitaria was 90 to 100%; with Echinochloa, 70 to 100%; with Panicum it was 95 to 100%; in the assay on Setaria it was 70 to 100%.
As to `Cc1cc(C)c(-c2c(O)cc(-c3ccco3)oc2=O)c(C)c1` [Example 56], the mortality at 0.1 % in assay [1] was found to be 100%. Also, the activity at 500 g/ha lay in the range of 70 to 100% with Echinochloa, 95 to 100% in the assay with Panicum and 70 to 100% in the assay on Setaria. In addition, in the assay on Trichinella spiralis, the killing at 100 ppm amounted to 100%.
As to `Cc1cc(C)c(-c2c(O)cc(-c3cccs3)oc2=O)c(C)c1` [Example 58], the mortality at 0.1 % in assay [1] amounted to 100%.
`Cc1cc(C)c(-c2c(O)cc(-c3cc(Cl)c(Cl)s3)oc2=O)c(C)c1` [Example 60]: the figures for the activity at 500 g/ha in the assay on Digitaria, in the assay on Panicum and in the assay on Setaria were 90 to 100%, 95 to 100% and 70 to 100%, respectively.
`Cc1cc(C)c(-c2c(O)cc(-c3ccc(Cl)s3)oc2=O)c(C)c1` [Example 61]: the mortality at 0.1 % in [4] was determined as 100%.
With `Cc1cc(C)c(-c2c(O)cc(-c3cc(C)sc3C)oc2=O)c(C)c1` [Example 62], the mortality at 0.1 % in assay [1] was 100%. For the same compound, the activity at 500 g/ha in the assay on Digitaria was in the range of 90 to 100%; in the assay with Panicum it was 95 to 100%.
`Cc1cc(C)c(-c2c(O)cc(-c3cccnc3)oc2=O)c(C)c1` [Example 63]: the activity at 500 g/ha in the assay with Digitaria lay in the range of 90 to 100%; in the assay on Echinochloa, 70 to 100%; with Panicum, 95 to 100%; in the assay on Setaria, 70 to 100%.
Take `Cc1cc(C)c(-c2c(O)cc(-c3c(C)cc(C)nc3C)oc2=O)c(C)c1` [Example 65]: the mortality at 0.1 % in [3] and in assay [1] was 100% throughout.
Consider `Cc1cc(C)c(-c2c(O)c3c(oc2=O)CCCC3)c(C)c1` [Example 68], for which the mortality at 0.1 % in [1] was found to be 100%. The activity at 500 g/ha with Digitaria lay within 90 to 100%; with Echinochloa, 70 to 100%; with Panicum it was 95 to 100%; in the assay on Setaria, 70 to 100%.
With `Cc1cc(C)c(-c2c(O)c3c(oc2=O)CCC3)c(C)c1` [Example 69], the mortality at 0.1 % in [1] was found to be 100%. The activity at 500 g/ha in the assay with Digitaria lay within 90 to 100%; with Echinochloa, 70 to 100%; in the assay on Panicum, 95 to 100%; with Setaria, 70 to 100%.
Regarding `Cc1cc(C)c(-c2c(O)c3c(oc2=O)CCOC3)c(C)c1` [Example 71], in assay [1], the mortality at 0.1 % was 100%.
As to `CC(=O)Oc1c(C)c(C)oc(=O)c1-c1c(C)cc(C)cc1C` [Example 81], the mortality at 0.1 % in [4] came to 100%. Also, the activity at 500 g/ha with Digitaria lay in the range of 90 to 100%; in the assay with Echinochloa, 70 to 100%; in the assay with Panicum it was 95 to 100%; in the assay on Setaria, 70 to 100%.
For `CC(=O)Oc1cc(C(C)(C)C)oc(=O)c1-c1c(C)cc(C)cc1C` [Example 84], the mortality at 0.1 % in assay [1] is 100%. The mortality at 0.01 % in [2] (setting [5]) was 100%. Further, the activity at 500 g/ha in the assay on Digitaria was in the range of 90 to 100%; in the assay on Echinochloa it was 70 to 100%; in the assay with Panicum, 95 to 100%; with Setaria, 70 to 100%.
As to `Cc1cc(C)c(-c2c(OC(=O)C(C)C)cc(C(C)(C)C)oc2=O)c(C)c1` [Example 85], the mortality at 0.1 % in assay [1] was found to be 100%. For the same compound, the mortality at 0.01 % in assay [2] (setting [5]) stood at 100%.
For `CCOC(=O)Oc1c(C)c(C)oc(=O)c1-c1c(C)cc(C)cc1C` [Example 88], the mortality at 0.1 % in [4] came out at 100%. In addition, in assay [2] (setting [5]), the mortality at 0.01 % was found to be 100%. Besides, the activity at 500 g/ha was in the range of 90 to 100% with Digitaria, 95 to 100% in the assay on Panicum and 70 to 100% in the assay with Setaria.
